Among the test systems are BT-549; CCRF-CEM; EKVX; HCT-15; HL-60; HOP-62; MDA-MB-435; Malme-3M; NCI-H460; OVCAR-4; OVCAR-5; RPMI-8226; SF-539; SK-OV-3; SN12C; SNB-75; U-251; IGROV-1; NCI/ADR-RES; SK-MEL-5.
Common to all, as to test: inhibition of tumour cell growth, NCI panel, 48 h

Each structure is given as a SMILES string.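 Five compound concentrations were applied to cells in 96-well plates for 48 hours; endpoints were derived by simple linear interpolation of the resulting dose-response curve. GI50: concentration for 50% inhibition of growth.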 Calls of active or inactive are those of the source. Rule as the data show it: active = GI50 up to about 1.1 µM and inactive = higher.

For `O=C1c2ccccc2/N=C(/c2cc3c(cc2Cl)Sc2nccn2S3(=O)=O)OS(=O)(=O)N1c1ccccc1`, the GI50 in the assay with BT-549 is 17.8 µM (inactive); with CCRF-CEM, 4.65 µM (inactive); in the assay with EKVX it was 30 µM (inactive); in the assay on HCT-15, 20.2 µM; in the assay with HL-60 it was 31.3 µM (inactive); with HOP-62, 21.7 µM (inactive). The GI50 with MDA-MB-435 is 21.3 µM (inactive); in the assay on Malme-3M, 73.8 µM (inactive); in the assay on NCI-H460, 29.8 µM (inactive); in the assay on OVCAR-4, 21.1 µM (inactive); in the assay on OVCAR-5, 19.4 µM (inactive); in the assay on RPMI-8226 it was 18.6 µM (inactive). Besides, the GI50 was 36.7 µM (inactive) with SF-539; 36.3 µM (inactive) with SK-OV-3; 32.1 µM (inactive) in the assay on SN12C; 7.4 µM (inactive) with SNB-75; 29.2 µM (inactive) in the assay with U-251.

Consider `CCC(C)C(=O)O[C@H]1C(=O)O[C@@H]2C[C@H]3C(C)=CC(=O)[C@@H](O)[C@]3(C)[C@H]3[C@@H](O)[C@H](O)[C@@]4(C)OC[C@]32[C@@H]14` (stereo not given in full), for which the GI50 in the assay with CCRF-CEM is 0.0143 µM (active); in the assay with EKVX it was 0.121 µM (active); in the assay on HCT-15, under 0.0204 µM; in the assay with HL-60, 0.014 µM (active); with HOP-62, < 0.0221 µM (active); with IGROV-1, < 0.0191 µM (active). Moreover, the GI50 in the assay with MDA-MB-435 is < 0.01 µM (active); in the assay on Malme-3M, < 0.0152 µM (active); in the assay with NCI-H460, < 0.0135 µM (active); with NCI/ADR-RES, < 0.0334 µM (active); with OVCAR-4, < 0.01 µM (active); in the assay on OVCAR-5, < 0.0244 µM (active). The GI50 in the assay on RPMI-8226 is < 0.016 µM (active); in the assay on SF-539 it was < 0.0176 µM (active); with SK-MEL-5, < 0.0169 µM (active); in the assay with SK-OV-3, 0.0832 µM (active); in the assay with SN12C it was < 0.01 µM (active); with SNB-75, < 0.0167 µM (active). Moreover, the GI50 in the assay on U-251 was < 0.0171 µM (active).

As to `CN(CC(=O)O)c1ncc2c(n1)C=CCC2`, the GI50 in the assay with CCRF-CEM was > 100 µM (inactive); in the assay with EKVX it was > 100 µM (inactive); with HCT-15, over 100 µM; in the assay on HL-60 it was 81.5 µM (inactive); in the assay with HOP-62, > 100 µM (inactive); with IGROV-1 it was > 100 µM (inactive). For the same compound, the GI50 in the assay with MDA-MB-435, in the assay on Malme-3M, in the assay on NCI-H460, in the assay on NCI/ADR-RES, with OVCAR-4 and in the assay with OVCAR-5 was > 100 µM (inactive) throughout. Further, the GI50 with RPMI-8226, with SF-539, in the assay with SK-MEL-5, in the assay on SK-OV-3, in the assay on SN12C and in the assay with SNB-75 was > 100 µM (inactive) in each case. Also, the GI50 with U-251 is > 100 µM (inactive).

With `CC(C)(C)OC(=O)N1CC(O)O[C@H](c2ccccc2)[C@@H]1c1ccccc1` (stereo not given in full), the GI50 in the assay on BT-549 is 17.8 µM (inactive); with CCRF-CEM it was 21.6 µM (inactive); with EKVX, 19.5 µM (inactive); with HCT-15, 18 µM; in the assay with HOP-62 it was 16.3 µM (inactive); with IGROV-1, 18.9 µM (inactive). Further, the GI50 was 17.3 µM (inactive) in the assay with MDA-MB-435; 19.4 µM (inactive) in the assay on Malme-3M; 26.4 µM (inactive) with NCI/ADR-RES; 18.5 µM (inactive) in the assay with OVCAR-4; 17.9 µM (inactive) in the assay with OVCAR-5; 24.7 µM (inactive) in the assay with RPMI-8226. Moreover, the GI50 with SK-MEL-5 is 27.9 µM (inactive); in the assay with SK-OV-3, 14.9 µM (inactive); with SN12C it was 38.2 µM (inactive); in the assay with SNB-75 it was 24.8 µM (inactive); in the assay with U-251, 14.4 µM (inactive).

As to `Cc1ccc(S(=O)(=O)N/N=C2\CC3CC4CCC2C4C3)cc1` (stereo not given), the GI50 in the assay with BT-549 was > 100 µM (inactive); in the assay with CCRF-CEM, > 100 µM (inactive); in the assay on EKVX, > 100 µM (inactive); with HCT-15, over 100 µM; in the assay on HL-60, > 100 µM (inactive); in the assay on HOP-62 it was > 100 µM (inactive). The GI50 in the assay on IGROV-1, in the assay with MDA-MB-435, in the assay with Malme-3M, with NCI-H460, in the assay on OVCAR-4 and in the assay on OVCAR-5 was > 100 µM (inactive) in each case. Moreover, the GI50 in the assay on RPMI-8226, in the assay with SF-539, with SK-MEL-5, in the assay on SK-OV-3, in the assay with SN12C and in the assay with SNB-75 was > 100 µM (inactive) each time. Moreover, the GI50 in the assay on U-251 is > 100 µM (inactive).

Regarding `CC(C)(O)C1CC(=O)C(C)(C2C(O)CC3(C)C4CC=C5C(CCC(O)C5(C)C)C4(C)C(=O)CC23C)O1` (stereo not given), the GI50 with BT-549 is > 100 µM (inactive); in the assay on EKVX it was > 100 µM (inactive); with HCT-15, over 100 µM; with HOP-62 it was > 100 µM (inactive); with IGROV-1 it was > 100 µM (inactive); in the assay with MDA-MB-435, > 100 µM (inactive). The GI50 in the assay on NCI-H460, in the assay on OVCAR-4, with OVCAR-5, in the assay on RPMI-8226, in the assay with SF-539 and in the assay on SK-MEL-5 was > 100 µM (inactive) each time. Besides, the GI50 with SK-OV-3 was > 100 µM (inactive); with SN12C, > 100 µM (inactive); with SNB-75, 42.2 µM (inactive); in the assay with U-251, > 100 µM (inactive).

Take `CCn1c(=N)sc2nc3ccccc3n2c1=O`: the GI50 in the assay on CCRF-CEM was 90.8 µM (inactive); with EKVX, > 100 µM (inactive); in the assay on HCT-15, over 100 µM; in the assay on HL-60 it was > 100 µM (inactive); in the assay on HOP-62, > 100 µM (inactive); in the assay on IGROV-1, > 100 µM (inactive). Also, the GI50 in the assay on MDA-MB-435, in the assay with Malme-3M, with NCI-H460, in the assay on NCI/ADR-RES, in the assay with OVCAR-4 and in the assay on OVCAR-5 was > 100 µM (inactive) throughout. The GI50 with RPMI-8226 was > 100 µM (inactive); in the assay on SF-539 it was > 100 µM (inactive); with SK-MEL-5 it was > 100 µM (inactive); in the assay with SK-OV-3, > 100 µM (inactive); with SN12C, > 100 µM (inactive); in the assay with SNB-75 it was 40 µM (inactive). Also, the GI50 with U-251 was > 100 µM (inactive).

For the compound `O=C(NCCOC(=O)OCCNC(=O)NC1CCCCC1)NC1CCCCC1`, the GI50 in the assay with CCRF-CEM was > 100 µM (inactive); in the assay on EKVX it was > 100 µM (inactive); in the assay on HCT-15, over 100 µM; in the assay with HL-60, > 100 µM (inactive); in the assay with HOP-62, 35.6 µM (inactive); with IGROV-1, > 100 µM (inactive). In addition, the GI50 with MDA-MB-435 was > 100 µM (inactive); with Malme-3M, > 100 µM (inactive); in the assay with NCI-H460 it was > 100 µM (inactive); in the assay with NCI/ADR-RES it was > 100 µM (inactive); with OVCAR-4 it was 91.6 µM (inactive); in the assay with OVCAR-5, > 100 µM (inactive). Further, the GI50 in the assay with RPMI-8226 was > 100 µM (inactive); with SF-539, 44.3 µM (inactive); in the assay with SK-MEL-5 it was > 100 µM (inactive); with SK-OV-3, 92.5 µM (inactive); in the assay with SN12C it was > 100 µM (inactive); in the assay with SNB-75 it was 0.26 µM (active). Also, the GI50 with U-251 is > 100 µM (inactive).

Take `c1cc2c3c(c1)[C@@H]1O[C@@H]1c1cccc(c1-3)[C@@H]1O[C@H]21`: the GI50 with BT-549 is 24 µM (inactive); in the assay with EKVX it was 16.6 µM (inactive); in the assay with HCT-15, 17.5 µM; in the assay with HOP-62, 27.7 µM (inactive); with MDA-MB-435, 14.3 µM (inactive); in the assay on Malme-3M, 15.4 µM (inactive). The GI50 in the assay on NCI/ADR-RES is 22.4 µM (inactive); with OVCAR-4, 19.8 µM (inactive); in the assay with OVCAR-5 it was 16.5 µM (inactive); in the assay on SK-MEL-5, 17.9 µM (inactive); in the assay on SK-OV-3, > 100 µM (inactive); in the assay on SN12C, 19.7 µM (inactive). For the same compound, the GI50 is 20.9 µM (inactive) in the assay on SNB-75 and 16.9 µM (inactive) with U-251.

In the case of `O=C(NC(=O)c1ccccc1[N+](=O)[O-])Nc1ccc(Oc2ncc(Cl)cn2)c(C(F)(F)F)c1`, the GI50 was 0.0154 µM (active) in the assay on CCRF-CEM; 0.126 µM (active) in the assay with EKVX; under 0.0126 µM in the assay with HCT-15; < 0.01 µM (active) in the assay with HL-60; 0.0181 µM (active) with HOP-62; 0.0213 µM (active) in the assay on IGROV-1. Further, the GI50 in the assay with MDA-MB-435 is < 0.01 µM (active); with Malme-3M, < 0.01 µM (active); with NCI-H460, < 0.01 µM (active); in the assay on NCI/ADR-RES it was < 0.01 µM (active); with OVCAR-4, 1.6 µM (inactive); in the assay on OVCAR-5 it was 0.0119 µM (active). Moreover, the GI50 was 0.0208 µM (active) with RPMI-8226; 0.0109 µM (active) in the assay on SF-539; < 0.01 µM (active) with SK-MEL-5; < 0.01 µM (active) with SK-OV-3; 0.0873 µM (active) with SN12C; < 0.01 µM (active) in the assay with SNB-75. The GI50 with U-251 was < 0.0121 µM (active).

Turning to `CSc1ncc2c(n1)-c1ccccc1OC2NC(C)(C)C` (stereo not given), the GI50 in the assay with BT-549 is 44.9 µM (inactive); in the assay with CCRF-CEM, 91.4 µM (inactive); in the assay on EKVX, 29 µM (inactive); with HCT-15, over 100 µM; with HL-60, > 100 µM (inactive); in the assay with HOP-62, > 100 µM (inactive). Besides, the GI50 is > 100 µM (inactive) in the assay on MDA-MB-435; > 100 µM (inactive) in the assay with Malme-3M; > 100 µM (inactive) with NCI-H460; > 100 µM (inactive) in the assay on OVCAR-4; 50.7 µM (inactive) with OVCAR-5; 57.7 µM (inactive) with RPMI-8226. Also, the GI50 in the assay with SF-539 is > 100 µM (inactive); in the assay on SK-OV-3, 91.2 µM (inactive); in the assay on SN12C it was > 100 µM (inactive); in the assay on SNB-75, 27.2 µM (inactive); in the assay with U-251, > 100 µM (inactive).
